From article PMC12133000 (PLOS One, 2025)
Where two headings read alike, the source gives them in different places.

Experiment: Pharmacokinetics of rivaroxaban in rats after avitinib or gefitinib pretreatment
Type: in vivo, Sprague–Dawley (SD) rats
Conditions: male, Sprague-Dawley, rat, plasma, oral
Experimental: Eighteen male Sprague–Dawley (SD) rats weighing 300 ± 20 g were provided by the Experimental Animal Center of Wenzhou Medical University (Wenzhou, China) and kept under controlled conditions at a temperature of 23 ± 2 °C, relative humidity of 50 ± 10%, and 12 h light–dark cycle. Eighteen male SD rats were randomly assigned to three groups: avitinib, gefitinib, and control, with six rats per group. Prior to the experiment, the rats were not administered any other medications and fasted for 12 h. The experimental procedures and protocols adhered to Animal Ethics standards and were approved by the Animal Care and Use Committee of Wenzhou Medical University (approval no. wydw2019–650). All rats were anesthetized with sodium pentobarbital (40mg/kg, i.p) to relieve pain. The rats were killed through cervical dislocation.
Prior to the experiment in vivo, the six rats in the avitinib group were administered 30 mg/kg avitinib and 0.5% sodium carboxymethyl cellulose (CMC-Na) solution by gavage daily for 7 d. […] The supernatant was collected and stored at −80 °C. After thawing, 50 μL of plasma was extracted; 100 μL of acetonitrile solution containing midazolam (200 ng/mL) was then added to induce protein precipitation. After vortexing for 30 s and centrifuging at 13,000 rpm for 5 min, the […].
All assays were performed in triplicate, and the results are expressed as mean ± standard deviation. DAS software v. […] SPSS v. 25.0 (IBM, NY, USA) was used for data processing. Student’s t-tests were used to detect differences between groups. Differences with p < 0.05 were considered statistically significant.

concentration at 6 h (10 mg/kg, rivaroxaban ng/ml mean, control (rivaroxaban alone) group, mean of rats 13-18, time 6): 141 ng/mL
concentration at 8 h (10 mg/kg, rivaroxaban ng/ml mean, control (rivaroxaban alone) group, mean of rats 13-18, time 8): 93 ng/mL
concentration at 12 h (10 mg/kg, rivaroxaban ng/ml mean, control (rivaroxaban alone) group, mean of rats 13-18, time 12): 76.8 ng/mL
concentration at 0.25 h (10 mg/kg, rivaroxaban ng/ml, 对照 (control, rivaroxaban alone) group, individual rats 13-18, time 0.25): 305 ng/mL
concentration at 0.5 h (10 mg/kg, rivaroxaban ng/ml, 对照 (control, rivaroxaban alone) group, individual rats 13-18, time 0.5): 434 ng/mL
concentration at 1 h (10 mg/kg, rivaroxaban ng/ml, 对照 (control, rivaroxaban alone) group, individual rats 13-18, time 1): 458 ng/mL
concentration at 4 h (10 mg/kg, rivaroxaban ng/ml, 对照 (control, rivaroxaban alone) group, individual rats 13-18, time 4): 190 ng/mL
concentration at 12 h (gefitinib group, Mean, read-out: C_last): 2070 ng/mL
concentration at 5 min (plasma concentration of rivaroxaban, 5 min, avitinib group, Mean): 284 ng/mL
concentration at 5 min (plasma concentration of rivaroxaban, 5 min, avitinib group, single rats No1-No6): 237 ng/mL
concentration at 5 min (plasma concentration of rivaroxaban, 5 min, gefitinib group, Mean): 626 ng/mL
concentration at 0.25 h (plasma concentration of rivaroxaban, 0.25 h, avitinib group, Mean): 588 ng/mL
concentration at 0.25 h (plasma concentration of rivaroxaban, 0.25 h, gefitinib group, Mean): 1740 ng/mL
concentration at 0.25 h (plasma concentration of rivaroxaban, 0.25 h, gefitinib group, single rats No1-No6): 1690 ng/mL
concentration at 0.5 h (plasma concentration of rivaroxaban, 0.5 h, avitinib group, Mean): 1090 ng/mL
concentration at 0.5 h (plasma concentration of rivaroxaban, 0.5 h, gefitinib group, Mean): 3670 ng/mL
concentration at 0.5 h (plasma concentration of rivaroxaban, 0.5 h, gefitinib group, single rats No1-No6): 4080 ng/mL
concentration at 1 h (plasma concentration of rivaroxaban, 1 h, avitinib group, Mean): 1730 ng/mL
concentration at 1 h (plasma concentration of rivaroxaban, 1 h, gefitinib group, Mean): 5580 ng/mL
concentration at 1 h (plasma concentration of rivaroxaban, 1 h, gefitinib group, single rats No1-No6): 6110 ng/mL
concentration at 2 h (plasma concentration of rivaroxaban, 2 h, avitinib group, Mean): 1650 ng/mL
concentration at 2 h (plasma concentration of rivaroxaban, 2 h, gefitinib group, Mean): 7180 ng/mL
concentration at 3 h (plasma concentration of rivaroxaban, 3 h, avitinib group, Mean): 1390 ng/mL
concentration at 3 h (plasma concentration of rivaroxaban, 3 h, gefitinib group, Mean): 7690 ng/mL
concentration at 3 h (plasma concentration of rivaroxaban, 3 h, gefitinib group, single rats No1-No6): 6480 ng/mL
concentration at 4 h (plasma concentration of rivaroxaban, 4 h, avitinib group, Mean): 1010 ng/mL
concentration at 4 h (plasma concentration of rivaroxaban, 4 h, gefitinib group, Mean): 7800 ng/mL
concentration at 4 h (plasma concentration of rivaroxaban, 4 h, gefitinib group, single rats No1-No6): 6780 ng/mL
concentration at 6 h (plasma concentration of rivaroxaban, 6 h, avitinib group, Mean): 538 ng/mL
concentration at 6 h (plasma concentration of rivaroxaban, 6 h, gefitinib group, Mean): 5500 ng/mL
concentration at 6 h (plasma concentration of rivaroxaban, 6 h, gefitinib group, single rats No1-No6): 5830 ng/mL
concentration at 8 h (plasma concentration of rivaroxaban, 8 h, avitinib group, Mean): 448 ng/mL
concentration at 8 h (plasma concentration of rivaroxaban, 8 h, gefitinib group, Mean): 3710 ng/mL
concentration at 8 h (plasma concentration of rivaroxaban, 8 h, gefitinib group, single rats No1-No6): 4960 ng/mL
concentration at 12 h (plasma concentration of rivaroxaban, 12 h, avitinib group, Mean): 80.9 ng/mL
concentration at 12 h (plasma concentration of rivaroxaban, 12 h, gefitinib group, Mean): 1640 ng/mL
concentration at 24 h (rivaroxaban ng/ml mean, 吉非替尼 (gefitinib) group, mean (four rats), time 24): 144 ng/mL
concentration at 5 min (rivaroxaban ng/ml mean, 吉非替尼 (gefitinib) group, mean of rats 7-12, time 0.0833): 626 ng/mL
concentration at 0.25 h (rivaroxaban ng/ml mean, 吉非替尼 (gefitinib) group, mean of rats 7-12, time 0.25): 1740 ng/mL
concentration at 0.5 h (rivaroxaban ng/ml mean, 吉非替尼 (gefitinib) group, mean of rats 7-12, time 0.5): 3670 ng/mL
concentration at 1 h (rivaroxaban ng/ml mean, 吉非替尼 (gefitinib) group, mean of rats 7-12, time 1): 5580 ng/mL
concentration at 2 h (rivaroxaban ng/ml mean, 吉非替尼 (gefitinib) group, mean of rats 7-12, time 2): 7180 ng/mL
concentration at 3 h (rivaroxaban ng/ml mean, 吉非替尼 (gefitinib) group, mean of rats 7-12, time 3): 7690 ng/mL
concentration at 4 h (rivaroxaban ng/ml mean, 吉非替尼 (gefitinib) group, mean of rats 7-12, time 4): 7800 ng/mL
concentration at 6 h (rivaroxaban ng/ml mean, 吉非替尼 (gefitinib) group, mean of rats 7-12, time 6): 5500 ng/mL
concentration at 8 h (rivaroxaban ng/ml mean, 吉非替尼 (gefitinib) group, mean of rats 7-12, time 8): 3710 ng/mL
Compound: O=C(NC[C@H]1CN(c2ccc(N3CCOCC3=O)cc2)C(=O)O1)c1ccc(Cl)s1 [rivaroxaban, Rivaroxaban]
